Laboratory results as given in patent US12344610B2, “APOL1 inhibitors and methods of use” (Maze Therapeutics, Inc., priority 2022, dated 2025).

Tests used:
[1] = test system: HEK293 clonal cell line overexpressing APOL1 G1; test: APOL1 G1 HEK293 cell rescue assay (Example B3); format: cell-based; details: geometric mean of at least 2 runs, † = single run, ¥ = concentration at 50% rescue estimated (no sigmoidal curve)
Method in brief: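 Rescue of cell death caused by APOL1 G1 overexpression was measured in a clonal HEK293 line. Compounds were tested in duplicate on one plate, and EC50s were geometric means across at least two runs on different days. Some values are estimated 50%-rescue concentrations where curve fitting failed.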

APOL1 G2 = biological target: T1, APOL1 G2 (Homo sapiens, UniProt O14791, DEL388-389); test: APOL1-mediated calcium transport (calcium influx) assay, HEK T-REx/GCaMP6f/APOL1 G2 K6.3 cells, FLIPR TETRA; format: cell-based; details: prevention of calcium influx; geometric mean of at least 2 assay runs; † = average of a technical replicate from a single assay run
T1 construct: expressed in transfected cells; host or cells: HEK293 T-REx clonal line stably expressing GCaMP6f (HEK T-REx/GCaMP6f/APOL1 G2 K6.3), doxycycline induced
T1 sequence (O14791 with tags, fused parts or gaps DEL388-389): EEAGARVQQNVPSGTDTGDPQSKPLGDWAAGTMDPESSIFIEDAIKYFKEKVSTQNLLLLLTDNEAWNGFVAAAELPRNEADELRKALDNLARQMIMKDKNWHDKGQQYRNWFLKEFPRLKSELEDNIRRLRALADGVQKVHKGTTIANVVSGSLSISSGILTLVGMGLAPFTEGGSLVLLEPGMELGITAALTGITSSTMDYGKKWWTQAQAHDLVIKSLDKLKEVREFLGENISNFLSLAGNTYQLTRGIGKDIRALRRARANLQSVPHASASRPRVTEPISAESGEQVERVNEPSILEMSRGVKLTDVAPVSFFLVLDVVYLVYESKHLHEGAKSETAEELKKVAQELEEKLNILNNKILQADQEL
Method in brief: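 A HEK293 T-REx clone stably expressing GCaMP6f had APOL1 G2 induced with doxycycline (20 ng/mL solution added) for 6 h. Cells were then washed into Ca2+-free Tyrode's buffer (pH 7.4) and preincubated with compounds (duplicate 8-point) for 10 min at room temperature. Ca2+ injection to 5 mM final produced FLIPR GCaMP fluorescence, giving AC50 for influx inhibition (geometric mean, ≥2 runs).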

[2] = Homo sapiens, HEK293, HEK293 clonal line overexpressing APOL1 G1
[3] = HEK293 clonal line overexpressing APOL1 G1

| SMILES | EC50 [1, 2] [nM] | EC50 [1, 3] [nM] | AC50 (APOL1 G2) [nM] |
| --- | --- | --- | --- |
| CC(c1ncc(OCCN2CCC3(CC2)C(=O)Nc2ccc(Cl)cc23)cn1)S(C)(=O)=O (single isomer, unassigned) [Compound 2, 5-chloro-1′-[2-({2-[(1S) or (1R)-1-methanesulfonylethyl]pyrimidin-5-yl}oxy)ethyl]-1,2-dihydrospiro[indole-3,4′-piperidin]-2-one] | 346 | – | – |
| CC(c1ncc(OCCN2CCC3(CC2)C(=O)Nc2ccc(Cl)cc23)cn1)S(C)(=O)=O (single isomer, unassigned) [Compound 3, 5-chloro-1′-[2-({2-[(1R) or (1S)-1-methanesulfonylethyl]pyrimidin-5-yl}oxy)ethyl]-1,2-dihydrospiro[indole-3,4′-piperidin]-2-one] | – | 257 | – |
| CC(O)c1ncc(OCCN2CCC3(CC2)C(=O)Nc2ccc(C#N)cc23)cc1C(F)(F)F (single isomer, unassigned) [Compound 376, 1′-[2-({6-[(1S) or (1R)-1-hydroxyethyl]-5-(trifluoromethyl)pyridin-3-yl}oxy)ethyl]-2-oxo-1,2-dihydrospiro[indole-3,4′-piperidine]-5-carbonitrile] | 129 | – | – |
| CC(O)c1ncc(OCCN2CCC3(CC2)C(=O)Nc2ccc(C#N)cc23)cc1C(F)(F)F (single isomer, unassigned) [Compound 377, 1′-[2-({6-(1S) or (1R)-1-hydroxyethyl]-5-(trifluoromethyl)pyridin-3-yl}oxy)ethyl]-2-oxo-1,2-dihydrospiro[indole-3,4′-piperidine]-5-carbonitrile] | – | 172 | – |
| CS(=O)(=O)C1(c2ncc(OCCN3CCC4(CC3)C(=O)Nc3ccc(C(F)F)cc34)cn2)CC1 [Compound 5, 5-(difluoromethyl)-1′-(2-{[2-(1-methanesulfonylcyclopropyl)pyrimidin-5-yl]oxy}ethyl)-1,2-dihydrospiro[indole-3,4′-piperidin]-2-one] | 295 | – | – |
| CS(=O)(=O)C1(c2ncc(OCCN3CCC4(CC3)C(=O)Nc3ccc(OC(F)F)cc34)cn2)CC1 [Compound 6, 5-(difluoromethoxy)-1′-(2-{[2-(1-methanesulfonylcyclopropyl)pyrimidin-5-yl]oxy}ethyl)-1,2-dihydrospiro[indole-3,4′-piperidin]-2-one] | 252 | – | – |
| O=C1CCc2cc(OCCN3CCC4(CC3)C(=O)Nc3ccc(Cl)cc34)ccc2N1 [Compound 82, 5-chloro-1′-{2-[(2-oxo-1,2,3,4-tetrahydroquinolin-6-yl)oxy]ethyl}-1,2-dihydrospiro[indole-3,4′-piperidin]-2-one] | 252 | – | 1050 |
| CS(=O)(=O)C1(c2c(F)cc(OCCN3CCC4(CC3)C(=O)Nc3ccc(C#N)cc34)cc2F)COC1 [Compound 84, 1′-{2-[3,5-difluoro-4-(3-methanesulfonyloxetan-3-yl)phenoxy]ethyl}-2-oxo-1,2-dihydrospiro[indole-3,4′-piperidine]-5-carbonitrile] | 233 | – | 1450 |
| O=C1Nc2ccc(Cl)cc2C12CCN(CCOc1ccc3c(cnn3[C@H]3C[C@@H](O)C3)c1)CC2 [Compound 85, 5-chloro-1′-[2-({1-[(cis)-3-hydroxycyclobutyl]-1H-indazol-5-yl}oxy)ethyl]-1,2-dihydrospiro[indole-3,4′-piperidin]-2-one] | 157 | – | 564 |
| O=C1Nc2ccc(Cl)cc2C12CCN(CCOc1ccc3c(cnn3[C@H]3C[C@H](O)C3)c1)CC2 [Compound 86, 5-chloro-1′-[2-({1-[(trans)-3-hydroxycyclobutyl]-1H-indazol-5-yl}oxy)ethyl]-1,2-dihydrospiro[indole-3,4′-piperidin]-2-one] | 126 | – | 539 |
| O=C1Nc2ccc(Cl)cc2C12CCN(CCOc1ccc3[nH]ncc3c1)CC2 [Compound 87, 5-chloro-1′-[2-(2H-indazol-5-yloxy)ethyl]-1,2-dihydrospiro[indole-3,4′-piperidin]-2-one] | 281 | – | 375 |
| Cn1c(=O)[nH]c2cc(OCCN3CCC4(CC3)C(=O)Nc3ccc(Cl)cc34)ccc21 [Compound 88, 5-chloro-1′-{2-[(1-methyl-2-oxo-2,3-dihydro-1H-1,3-benzodiazol-5-yl)oxy]ethyl}-1,2-dihydrospiro[indole-3,4′-piperidin]-2-one] | 438 | – | 698 |
| CS(=O)(=O)c1c(F)cc(OCCN2CCC3(CC2)C(=O)Nc2ccc(Cl)cc23)cc1F [Compound 89, 5-chloro-1′-[2-(3,5-difluoro-4-methanesulfonylphenoxy)ethyl]-1,2-dihydrospiro[indole-3,4′-piperidin]-2-one] | 138 | – | 463 |
| CS(=O)(=O)c1c(F)cc(OCCN2CCC3(CC2)C(=O)Nc2ccc(C#N)cc23)cc1F [Compound 90, 1′-[2-(3,5-difluoro-4-methanesulfonylphenoxy)ethyl]-2-oxo-1,2-dihydrospiro[indole-3,4′-piperidine]-5-carbonitrile] | 594 | – | 973 |
| COC(=O)C1(S(=O)(=O)c2ccc(OCCN3CCC4(CC3)C(=O)Nc3ccc(Cl)cc34)cc2)CC1 [Compound 91, methyl 1-[4-(2-{5-chloro-2-oxo-1,2-dihydrospiro[indole-3,4′-piperidin]-1′-yl}ethoxy)benzenesulfonyl]cyclopropane-1-carboxylate] | 99 | – | 739 |
| CC1(S(=O)(=O)c2ccc(OCCN3CCC4(CC3)C(=O)Nc3ccc(Cl)cc34)cc2)COC1 [Compound 92, 5-chloro-1′-(2-{4-[(3-methyloxetan-3-yl)sulfonyl]phenoxy}ethyl)-1,2-dihydrospiro[indole-3,4′-piperidin]-2-one] | 101 | – | 761 |
| CC1(S(=O)(=O)c2ccc(OCCN3CCC4(CC3)C(=O)Nc3ccc(C#N)cc34)cc2)COC1 [Compound 93, 1′-(2-{4-[(3-methyloxetan-3-yl)sulfonyl]phenoxy}ethyl)-2-oxo-1,2-dihydrospiro[indole-3,4′-piperidine]-5-carbonitrile] | 230 | – | 951 |
| CS(=O)(=O)N1CCc2cc(OCCN3CCC4(CC3)C(=O)Nc3ccc(Cl)cc34)ccc2C1 [Compound 94, 5-chloro-1′-{2-[(2-methanesulfonyl-1,2,3,4-tetrahydroisoquinolin-6-yl)oxy]ethyl}-1,2-dihydrospiro[indole-3,4′-piperidin]-2-one] | 210 | – | 794 |
| CN1C(=O)CCc2cc(OCCN3CCC4(CC3)C(=O)Nc3ccc(C#N)cc34)ccc21 [Compound 95, 1′-{2-[(1-methyl-2-oxo-1,2,3,4-tetrahydroquinolin-6-yl)oxy]ethyl}-2-oxo-1,2-dihydrospiro[indole-3,4′-piperidine]-5-carbonitrile] | 457 | – | 655 |
| O=C1CCc2cc(OCCN3CCC4(CC3)C(=O)Nc3ccc(Cl)cc34)cnc2N1[C@H]1C[C@H](O)C1 [Compound 267, 5-chloro-1′-[2-({7-oxo-8-[(trans)-3-hydroxycyclobutyl]-5,6,7,8-tetrahydro-1,8-naphthyridin-3-yl}oxy)ethyl]-1,2-dihydrospiro[indole-3,4′-piperidin]-2-one] | 137 | – | – |
| CS(=O)(=O)C1(c2ccc(OCCN3CCC4(CC3)C(=O)Nc3ccc(Cl)cc34)cc2)CC(O)C1 (stereo not drawn) [Compound 269, 5-chloro-1′-(2-{4-[(cis) or (trans)-3-hydroxy-1-methanesulfonylcyclobutyl]phenoxy}ethyl)-1,2-dihydrospiro[indole-3,4′-piperidin]-2-one] | – | 325 | – |
| CS(=O)(=O)C1(c2ccc(OCCN3CCC4(CC3)C(=O)Nc3ccc(Cl)cc34)cc2)CC(O)C1 (stereo not drawn) [Compound 270, 5-chloro-1′-(2-{4-[(trans) or (cis)-3-hydroxy-1-methanesulfonylcyclobutyl]phenoxy}ethyl)-1,2-dihydrospiro[indole-3,4′-piperidin]-2-one] | – | 60.7 | – |
| C[C@]1(O)C[C@@H](n2c(=O)cnc3cc(OCCN4CCC5(CC4)C(=O)Nc4ccc(Cl)cc45)cnc32)C1 [Compound 358, 5-chloro-1′-[2-({3-oxo-4-[(cis)-3-hydroxy-3-methylcyclobutyl]-3H,4H-pyrido[2,3-b]pyrazin-7-yl}oxy)ethyl]-1,2-dihydrospiro[indole-3,4′-piperidin]-2-one] | 111 | – | – |
| CC1(O)CN(c2ncc(OCCN3CCC4(CC3)C(=O)Nc3ccc(C(F)F)cc34)cn2)C1 [Compound 395, 5-(difluoromethyl)-1′-(2-{[2-(3-hydroxy-3-methylazetidin-1-yl)pyrimidin-5-yl]oxy}ethyl)-1,2-dihydrospiro[indole-3,4′-piperidin]-2-one] | 157 | – | – |
